What was measured:
endogenous MLKL in U937 = endogenous MLKL in U937 (Homo sapiens (Human), UniProt Q8NB16); experiment: Degradation assay: endogenous MLKL in U937 (western blot); conditions: U937, 24 h incubation, read-out: Degradation of endogenous MLKL in U937 (DC50 cell-based assay)
Description: Degradation Assay: Screening Compounds Procedure to Evaluate the Activity of Compounds in Degrading Endogenous MLKL in Human and Mouse Cell
The mouse dermal fibroblast (MDF) cell line was seeded the day before the experiment in a 24-well plate at a cell density of […] per well in a volume of 0.5 mL per well and left to attach overnight. The human monocyte cell line (U937) was seeded on the day of the experiment in a 24-well plate at a cell density of […] per well in a volume of 0.5 mL per well.
The compound was diluted in DMSO with a starting concentration of 10 mM and titrated stepwise with a dilution of 1:5. 0.5 μL of the compound dilution was added to the appropriate well to achieve a final concentration of 10; 2; 0.4; 0.08 and 0.016 μM. A DMSO only well was included as control.
The cells were incubated for 24 h in the presence of the compound at 37° C. and 10% CO2.
After the 24 h incubation period, the medium was removed and cells washed with 0.5 mL PBS. The cells were then lysed directly in 60 μL of 1×SDS gel loading buffer.
The cell lysate was heat-denatured at […] for 10 min. 10 μL of lysate per well were run on 18-well 4-15% Criterion TGX stain free gels (BIO-RAD). The proteins were then transferred onto nitrocellulose membrane with a wet transfer protocol in the Criterion Blotter (BIO-RAD).
Membranes were blocked with 5% skim milk in TBST. Primary antibody against MLKL (clone 3H1, MABC604 Merck) was used at 1:2000 dilution in TBST with 1% BSA and left shaking over night at 4° C. After washes with TBST, the membranes were incubated with goat anti-rat IgG HRP-conjugated antibody (Southern Biotech) in 1% skim milk TBST at 1:10000 dilution for 1 h at room temperature. After TBST washes the bands were imaged on the ChemiDoc MP Imaging System (BIO-RAD) with Immobilion Western Chemiluminescent HRP Substrate Forte (Millipore). The loading control GAPDH was probed for with rabbit anti-GAPDH (CST 14C10) at 1:2000 dilution in 1% BSA TBST over night at 4° C. TBST washes were followed by incubation with goat anti-rabbit IgG HRP-conjugated antibody (Southern Biotech) in 1% skim milk TBST at 1:10000 dilution for 1 h at room temperature followed by TBST washes. The signal was detected as described above.
The band intensity was measured in the ImageLab Software (BIO-RAD) and the MLKL values adjusted for loading with GAPDH. The percentage of degradation was calculated by normalizing the compound treated values to the DMSO only control.

[1] = system: Immortalised Mouse Dermal Fibroblasts (MDFs); experiment: Cellular assay: inhibition of TSI induced necroptosis, CellTitre-Glo viability; conditions: Mus musculus, Fibroblast; MDF, 3 hours TSI cocktail, Table 27; read-out: Inhibition of TSI-induced necroptosis (IC50 cell-based assay) in MDF
Summary of the method: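 Necroptosis induced for 3 h with TSI: rhTNF 100 ng/ml, Smac mimetic 500 nM, caspase inhibitor IDN-6556 10 μM. Mouse dermal fibroblasts had received compound (36 μM top, ten three-fold steps) 30 min beforehand. ATP-based viability scaled between untreated and TSI-only wells; IC50 taken as 4-parameter curve inflection.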

endogenous MLKL in MDF = endogenous MLKL in MDF (Mus musculus (Mouse), UniProt Q9D2Y4); experiment: Degradation assay: endogenous MLKL in MDF (western blot); conditions: MDF cells, 24 h incubation with compound, MLKL adjusted for loading with GAPDH, normalized to DMSO only control, read-out: Degradation of endogenous MLKL in MDF (DC50 cell-based assay)
Sequence of endogenous MLKL in MDF (Q9D2Y4 whole entry): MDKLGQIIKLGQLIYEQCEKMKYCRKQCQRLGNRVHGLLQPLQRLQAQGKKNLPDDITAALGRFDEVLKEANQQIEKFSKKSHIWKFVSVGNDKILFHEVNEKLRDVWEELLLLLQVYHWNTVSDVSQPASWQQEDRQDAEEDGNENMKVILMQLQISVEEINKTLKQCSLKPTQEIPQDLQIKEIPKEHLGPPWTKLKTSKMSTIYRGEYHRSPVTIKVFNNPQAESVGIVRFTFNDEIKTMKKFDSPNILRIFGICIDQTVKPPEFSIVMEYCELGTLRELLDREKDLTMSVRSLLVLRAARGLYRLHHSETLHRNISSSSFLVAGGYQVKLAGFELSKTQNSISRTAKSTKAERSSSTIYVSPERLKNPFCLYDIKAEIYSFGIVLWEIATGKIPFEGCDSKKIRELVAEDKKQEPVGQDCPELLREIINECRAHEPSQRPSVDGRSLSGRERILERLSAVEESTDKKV
Summary of the method: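 Western blot band intensity of MLKL, adjusted to GAPDH loading and normalized to DMSO-only wells, gave percent degradation. Compound exposure lasted 24 h at final concentrations of 10–0.016 μM in 1:5 steps, in mouse dermal fibroblasts or human U937 cells.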

human MLKL (full length) = human MLKL (full length) (Homo sapiens (Human), UniProt Q8NB16); experiment: KINOMEscan binding assay, human MLKL (full length); conditions: hMLKL, Table 25; read-out: MLKL (KD)
Sequence of human MLKL (full length) (Q8NB16 whole entry, the tested form may be a part): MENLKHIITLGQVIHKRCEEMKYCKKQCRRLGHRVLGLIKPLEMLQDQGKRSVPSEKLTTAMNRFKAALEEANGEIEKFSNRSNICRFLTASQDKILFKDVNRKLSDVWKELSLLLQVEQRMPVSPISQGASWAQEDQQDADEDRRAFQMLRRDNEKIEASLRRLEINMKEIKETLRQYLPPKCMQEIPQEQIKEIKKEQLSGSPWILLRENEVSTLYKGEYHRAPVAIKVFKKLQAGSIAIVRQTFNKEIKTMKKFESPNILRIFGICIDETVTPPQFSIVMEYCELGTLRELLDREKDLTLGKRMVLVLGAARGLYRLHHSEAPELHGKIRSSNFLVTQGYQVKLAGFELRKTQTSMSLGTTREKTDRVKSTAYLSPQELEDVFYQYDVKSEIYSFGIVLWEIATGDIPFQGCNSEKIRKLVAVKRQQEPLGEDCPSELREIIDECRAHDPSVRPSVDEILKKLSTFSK
Summary of the method: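 Active-site competition binding: DNA-tagged kinase (T7 phage fusion from BL21-derived E. coli lysate, or HEK-293-expressed) captured on immobilized-ligand beads, with bound kinase in the eluate quantified by qPCR. Compounds ran as 11-point 3-fold dilutions, 1% DMSO, top 30,000 nM for most. Kd came from a Hill fit (slope −1).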

Sequence of endogenous MLKL in U937 (Q8NB16 whole entry): as the sequence (Q8NB16 whole entry, the tested form may be a part) above

Row | DC50 (endogenous MLKL in U937) [nM] | DC50 (endogenous MLKL in MDF) [nM] | Kd (human MLKL (full length)) [nM] | SMILES | IC50 [1] [nM]
1 | < 1000 | < 1000 | 10 to 1000 | C[C@H](Oc1cc(-c2nn(C)c3c(-c4cnn(C5CCN(C(=O)[C@H]6C[C@H]6C6CCN(c7cccc8c7C(=O)N(C7CCC(=O)NC7=O)C8=O)CC6)CC5)c4)cnc(N)c23)ccc1NS(=O)(=O)C(F)F)c1ccc(F)cc1 (stereo in doubt) [Compound 1129, N-[4-(4-amino-7-{1-[1-(2-{1-[2-(2,6-dioxopiperidin-3-yl)-1,3-dioxo-2,3-dihydro-1H-isoindol-4-yl]piperidin-4-yl}-(cis)-cyclopropanecarbonyl)piperidin-4-yl]-1H-pyrazol-4-yl}-1-methyl-1H-pyrazolo[4,3-c]pyridin-3-yl)-2-[(1S)-1-(4-fluorophenyl)ethoxy]phenyl]-1,1-difluoromethane-sulfonamide] | < 1000
2 | < 1000 | < 1000 | 10 to 1000 | C[C@H](Oc1cc(-c2nn(C)c3c(-c4cnn(C5CCN(C(=O)[C@H]6C[C@@H]6C6CCN(c7cccc8c7C(=O)N(C7CCC(=O)NC7=O)C8=O)CC6)CC5)c4)cnc(N)c23)ccc1NS(=O)(=O)C(F)F)c1ccc(F)cc1 (stereo in doubt) [Compound 1130, N-[4-(4-amino-7-{1-[1-(2-{1-[2-(2,6-dioxopiperidin-3-yl)-1,3-dioxo-2,3-dihydro-1H-isoindol-4-yl]piperidin-4-yl}-(trans)-cyclopropanecarbonyl)piperidin-4-yl]-1H-pyrazol-4-yl}-1-methyl-1H-pyrazolo[4,3-c]pyridin-3-yl)-2-[(1S)-1-(4-fluorophenyl)ethoxy]phenyl]-1,1-difluoromethane-sulfonamide] | < 1000
3 | < 1000 | < 1000 | 10 to 1000 | Cc1ncsc1-c1ccc(CNC(=O)[C@@H]2C[C@@H](O)CN2C(=O)[C@@H](NC(=O)CCCCCOc2ccc(-c3cnc(N)c4c(-c5ccc(NS(=O)(=O)C(F)F)c(O[C@@H](C)c6ccc(F)cc6)c5)nn(C)c34)cc2)C(C)(C)C)cc1 [Compound 1042, (2S,4R)-1-[(2S)-2-[6-(4-{4-amino-3-[4-(difluoromethanesulfonamido)-3-[(1S)-1-(4-fluorophenyl)ethoxy]phenyl]-1-methyl-1H-pyrazolo[4,3-c]pyridin-7-yl}phenoxy)hexanamido]-3,3-dimethylbutanoyl]-4-hydroxy-N-{[4-(4-methyl-1,3-thiazol-5-yl)phenyl]methyl}pyrrolidine-2-carboxamide] | 1000 to 10000
4 | < 1000 | < 1000 | < 10 | C[C@H](Oc1cc(-c2nn(C)c3c(-c4cnn(C5CCN(C(=O)C6CCN(c7cccc8c7C(=O)N(C7CCC(=O)NC7=O)C8=O)CC6)CC5)c4)cnc(N)c23)ccc1NS(=O)(=O)C(F)F)c1ccc(F)cc1 (stereo partly drawn) [Compound 1044, N-(4-{4-amino-7-[1-(1-{1-[2-(2,6-dioxopiperidin-3-yl)-1,3-dioxo-2,3-dihydro-1H-isoindol-4-yl]piperidine-4-carbonyl}piperidin-4-yl)-1H-pyrazol-4-yl]-1-methyl-1H-pyrazolo [4,3-c]pyridin-3-yl}-2-[(1S)-1-(4-fluorophenyl)ethoxy]phenyl)-1,1-difluoromethanesulfonamide] | < 1000
5 | < 1000 | < 1000 | < 10 | C[C@H](Oc1cc(-c2nn(C)c3c(-c4cnn(C5CCN(C(=O)[C@H]6C[C@H](Nc7cccc8c7C(=O)N(C7CCC(=O)NC7=O)C8=O)C6)CC5)c4)cnc(N)c23)ccc1NS(=O)(=O)C(F)F)c1ccc(F)cc1 (stereo partly drawn) [Compound 1047, N-{4-[4-amino-1-methyl-7-(1-{1-[(trans)-3-{[2-(2,6-dioxopiperidin-3-yl)-1,3-dioxo-2,3-dihydro-1H-isoindol-4-yl]amino}cyclobutanecarbonyl]piperidin-4-yl}-1H-pyrazol-4-yl)-1H-pyrazolo[4,3-c]pyridin-3-yl]-2-[(1 S)-1-(4-fluorophenyl)ethoxy]phenyl}-1,1-difluoromethanesulfonamide] | < 1000
6 | < 1000 | < 1000 | < 10 | CCS(=O)(=O)Nc1ccc(-c2nn(C)c3c(-c4cnn(CCCCCCCOc5cccc6c5C(=O)N(C5CCC(=O)NC5=O)C6=O)c4)cnc(N)c23)cc1F (centres unmarked) [Compound 1059, N-(4-{4-amino-7-[1-(7-{[2-(2,6-dioxopiperidin-3-yl)-1,3-dioxo-2,3-dihydro-1H-isoindol-4-yl]oxy}heptyl)-1H-pyrazol-4-yl]-1-methyl-1H-pyrazolo[4,3-c]pyridin-3-yl}-2-fluorophenyl)ethane-1-sulfonamide] | 
7 | < 1000 | < 1000 |  | Cc1ncsc1-c1ccc(C(COCC(=O)N2CCC(n3cc(-c4cnc(N)c5c(-c6ccc(NS(=O)(=O)C(F)F)c(O[C@@H](C)c7ccc(F)cc7)c6)nn(C)c45)cn3)CC2)NC(=O)[C@@H]2C[C@@H](O)CN2C(=O)[C@@H](NC(=O)C2(F)CC2)C(C)(C)C)cc1 (stereo partly drawn) [Compound 1104, (2S,4R)—N-(2-{2-[4-(4-{4-amino-3-[4-(difluoromethanesulfonamido)-3-[(1 S)-1-(4-fluorophenyl)ethoxy]phenyl]-1-methyl-1H-pyrazolo[4,3-c]pyridin-7-yl}-1H-pyrazol-1-yl)piperidin-1-yl]-2-oxoethoxy}-1-[4-(4-methyl-1,3-thiazol-5-yl)phenyl]ethyl)-1-[(2S)-2-[(1-fluorocyclopropyl)formamido]-3,3-dimethylbutanoyl]-4-hydroxypyrrolidine-2-carboxamide] | 1000 to 10000
8 | < 1000 | < 1000 | < 10 | Cn1nc(-c2ccc(NS(=O)(=O)C(F)F)c(F)c2)c2c(N)ncc(-c3cnn(C4CCN(C(=O)[C@H]5C[C@H](Nc6cccc7c6C(=O)N(C6CCC(=O)NC6=O)C7=O)C5)CC4)c3)c21 (stereo partly drawn) [Compound 1114, N-{4-[4-amino-1-methyl-7-(1-{1-[(trans)-3-{[2-(2,6-dioxopiperidin-3-yl)-1,3-dioxo-2,3-dihydro-1H-isoindol-4-yl]amino}cyclobutanecarbonyl]piperidin-4-yl}-1H-pyrazol-4-yl)-1H-pyrazolo[4,3-c]pyridin-3-yl]-2-fluorophenyl}-1,1-difluoromethanesulfonamide] | 
9 | < 1000 | < 1000 |  | C[C@H](Oc1cc(-c2nn(C)c3c(-c4cnn(C5CCN(C(=O)N6CC(Nc7cccc8c7C(=O)N(C7CCC(=O)NC7=O)C8=O)C6)CC5)c4)cnc(N)c23)ccc1NS(=O)(=O)C(F)F)c1ccc(F)cc1 (stereo partly drawn) [Compound 1124, N-[4-(4-amino-7-{1-[1-(3-{[2-(2,6-dioxopiperidin-3-yl)-1,3-dioxo-2,3-dihydro-1H-isoindol-4-yl]amino}azetidine-1-carbonyl)piperidin-4-yl]-1H-pyrazol-4-yl}-1-methyl-1H-pyrazolo[4,3-c]pyridin-3-yl}-2-[(1S)-1-(4-fluorophenyl)ethoxy]phenyl]-1,1-difluoromethanesulfonamide] | < 1000
